Here are results for three compounds from BindingDB's records for doi:10.1111/cbdd.12842 (Jagiellonian University Medical College, 2017).

The target in this assay is T1, 5-hydroxytryptamine receptor 1A (Homo sapiens, UniProt P08908).
T1 sequence (P08908 whole entry): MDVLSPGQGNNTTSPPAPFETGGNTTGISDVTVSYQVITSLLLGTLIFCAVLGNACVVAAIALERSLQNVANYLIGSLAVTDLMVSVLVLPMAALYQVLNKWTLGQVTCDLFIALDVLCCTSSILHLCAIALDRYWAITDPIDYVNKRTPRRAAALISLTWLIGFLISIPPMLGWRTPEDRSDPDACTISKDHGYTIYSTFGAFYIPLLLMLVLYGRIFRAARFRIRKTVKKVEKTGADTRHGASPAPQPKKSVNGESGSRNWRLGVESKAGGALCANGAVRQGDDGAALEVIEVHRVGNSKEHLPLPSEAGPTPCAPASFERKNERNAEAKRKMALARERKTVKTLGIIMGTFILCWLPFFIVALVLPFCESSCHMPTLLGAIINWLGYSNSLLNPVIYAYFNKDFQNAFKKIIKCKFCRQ
In words: Radioligand Binding Assay ([3H]-8-OH-DPAT). To be noted: pH 7.4. The protocol: Binding experiments were conducted in 96-well microplates in a total volume of 250 μL of buffer (50 mM Tris-HCl pH 7.4, 10 mM MgCl2, 0.5 mM EDTA). Reaction mix included 50 μL solution of test compound, 50 μL of [3H]-8-OH-DPAT, and 150 μL of diluted membranes or the tissue suspension. Incubation condition: 60 min at 27 °C.

Counter-ions that a name gives are not always drawn.

With `CCC(CO)NCCOc1ccc2oc3ccccc3c(=O)c2c1` (stereo not drawn) [R,S-2-{2-[(1-hydroxybutan-2-yl]amino)ethoxy}-9H-xanthen-9-one (9)], the Ki was 659 nM.

As to `CCC(CO)NCCCOc1ccc2oc3ccccc3c(=O)c2c1` (stereo not drawn) [R,S-2-{3-[(1-hydroxybutan-2-yl)amino]propoxy}-9H-xanthen-9-one (12)], the inhibition constant (Ki) was above 5000 nM. With `CCC(O)CNCCOc1ccc2oc3ccccc3c(=O)c2c1` (stereo not drawn) [R,S-2-{2-[(2-hydroxybutyl)amino]ethoxy}-9H-xanthen-9-one hydrochloride (8a)] the figure was 320 nM.

The term Ki denotes the equilibrium dissociation constant of an inhibitor or competing ligand from its target. Read a low Ki as tighter binding.
